Measured values published in US11629171B2, “Beta-hairpin peptidomimetics” (POLYPHOR AG, priority 2017, dated 2023).
Values after ≈ are worked out from the molar mass of the structure shown. Where a SMILES comes first, the peptide text is derived from it. Bridges are numbered along the chain shown (N, C = ends). Roman numbers before positions name the chains, in order. [ ]: non-standard residue; d: D form. aThr = C[C@H](O)[C@H](N)C(=O)O; d(hSer) = N[C@H](CCO)C(=O)O; dDab = NCC[C@@H](N)C(=O)O; Dab = NCC[C@H](N)C(=O)O; Abu = CC[C@H](N)C(=O)O; Dap = NC[C@H](N)C(=O)O

Key:
[1] = tested on: Acinetobacter baumannii 872842; assay type: cell-based; conditions: 872842
In short: (§1)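 MIC in μg/mL, read as absence of visible growth after 18-20 h incubation at 35° C, by standard CLSI microdilution. Peptides tested in two-fold serial dilution in cation-adjusted MH-II broth containing 0.002% (final) Polysorbate 80, against roughly 10^6 CFU/mL inocula.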

[2] = tested on: Acinetobacter baumannii DSM 30008; assay type: cell-based; conditions: DSM 30008
In short: as §1

[3] = tested on: Enterobacter cloacae 848840; assay type: cell-based; conditions: 848840
In short: as §1

Escherichia coli 926415 = assay type: cell-based; conditions: 926415
In short: as §1

[4] = tested on: Escherichia coli ATCC 25922; assay type: cell-based; conditions: ATCC 25922
In short: as §1

[5] = tested on: Klebsiella pneumoniae 968733; assay type: cell-based; conditions: 968733
In short: as §1

[6] = tested on: Klebsiella pneumoniae SSI #3010; assay type: cell-based; conditions: SSI #3010
In short: as §1

[7] = tested on: Pseudomonas aeruginosa ATCC 27853; assay type: cell-based; conditions: ATCC 27853
In short: as §1

[8] = tested on: human red blood cells (hRBC); assay: Hemolysis; assay type: cell-based; conditions: red cells of human, 1 h, 200
In short: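 Hemoglobin release from PBS-washed hRBC at 20% (v/v), incubated 1 h at 37° C with peptides at 200 μg/mL, is measured at 540 nm. Values are blank corrected and given as a fraction of Triton X-100 lysis × 100%.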

male ICR mice = assay: Tolerability in a mouse model (Maximum Tolerated Dose assay); assay type: in vivo; conditions: 2 × 40 mg/kg s.c. at a 12-hr interval, groups of 3
In short: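 Groups of 3 male ICR mice weighing 23±3 g received two subcutaneous doses, 12 h apart, of 30 or 40 mg/kg in saline adjusted to pH 6.5-7.6. Observation for 30 min after each dose covered autonomic effects and acute toxicity, including death.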

Row | SMILES | MIC [1] [µg/mL] | MIC [2] [µg/mL] | MIC [3] [µg/mL] | MIC (Escherichia coli 926415) [µg/mL] | MIC [4] [µg/mL] | MIC [5] [µg/mL] | MIC [6] [µg/mL] | MIC [7] [µg/mL] | Hemolysis at 200 μg/mL [8] [%] | Mortality and dose (male ICR mice) | Acinetobacter baumannii DSM 30008 MIC [2] [µg/mL] | Escherichia coli ATCC 25922 MIC [4] [µg/mL] | Klebsiella pneumoniae SSI #3010 MIC [6] [µg/mL] | Pseudomonas aeruginosa ATCC 27853 MIC [7] [µg/mL]
1 | CC[C@@H]1NC(=O)[C@@H](CC(C)C)NC(=O)[C@H](CCN)NC(=O)[C@@H](NC(=O)[C@H](CN)NC(=O)[C@@H](NC(=O)[C@H](CCN)NC(=O)CC[C@@H]2NC(=O)CNC(=O)[C@H](Cc3ccc(O)cc3)NC(=O)[C@@H](NC(=O)[C@@H](NC(C)=O)C(C)C)CSSC[C@@H](C(=O)N[C@@H](CO)C(N)=O)NC(=O)[C@H](C(C)C)NC(=O)[C@H](CCN)NC(=O)[C@H](Cc3c[nH]c4ccccc34)NC(=O)[C@H](CCN)NC(=O)[C@@H](CCO)NC2=O)[C@@H](C)O)CCNC(=O)[C@H]([C@@H](C)O)NC(=O)[C@H](CCN)NC(=O)[C@H](CCN)NC1=O [Ex. 298] (I: Ac-VCYGE[d(hSer)][Dab]W[Dab]VCS-NH2 / II: [Dab]T[Dap][Dab][Dab][dL][Abu][Dab][Dab]T; disulfide I:2-I:11; amide I:5-II:N; lactam II:4-II:C) | 0.25 (≈ 0.106 µM) | 0.0625 (≈ 0.0265 µM) | 0.25 (≈ 0.106 µM) | 0.5 (≈ 0.212 µM) | 0.03125 (≈ 0.0133 µM) | 1 (≈ 0.425 µM) | 0.0625 (≈ 0.0265 µM) | 0.25 (≈ 0.106 µM) | <1 | 0/3 died at 2 × 40 mg/kg | – | – | – | –
2 | CC[C@@H]1NC(=O)[C@@H](CC(C)C)NC(=O)[C@H](CCN)NC(=O)[C@@H](NC(=O)[C@H](CN)NC(=O)[C@@H](NC(=O)[C@H](CCN)NC(=O)CC[C@@H]2NC(=O)[C@H](CCN)NC(=O)[C@H](Cc3ccc(O)cc3)NC(=O)[C@@H](NC(=O)[C@@H](NC(C)=O)C(C)C)CSSC[C@@H](C(=O)N[C@@H](CO)C(N)=O)NC(=O)[C@H]([C@@H](C)CC)NC(=O)[C@H](CO)NC(=O)[C@H](Cc3c[nH]c4ccccc34)NC(=O)[C@H](CCN)NC(=O)CNC2=O)[C@@H](C)O)CCNC(=O)[C@H]([C@@H](C)O)NC(=O)[C@H](CCN)NC(=O)[C@H](CCN)NC1=O [Ex. 299] (I: Ac-VCY[Dab]EG[Dab]WSICS-NH2 / II: [Dab]T[Dap][Dab][Dab][dL][Abu][Dab][Dab]T; disulfide I:2-I:11; amide I:5-II:N; lactam II:4-II:C) | 0.125 (≈ 0.0531 µM) | – | 0.125 (≈ 0.0531 µM) | 0.25 (≈ 0.106 µM) | – | 0.5 (≈ 0.212 µM) | – | – | <1 | 0/3 died at 2 × 40 mg/kg | 0.0625 | 0.0625 | 0.0625 | 0.25
3 | CC[C@@H]1NC(=O)[C@@H](CC(C)C)NC(=O)[C@H](CCN)NC(=O)[C@@H](NC(=O)[C@H](CN)NC(=O)[C@@H](NC(=O)[C@H](CCN)NC(=O)CC[C@@H]2NC(=O)[C@H](CCN)NC(=O)[C@H](Cc3ccc(O)cc3)NC(=O)[C@@H](NC(=O)[C@@H](NC(C)=O)C(C)C)CSSC[C@@H](C(=O)N[C@@H](CO)C(N)=O)NC(=O)[C@H](C(C)C)NC(=O)[C@H](CCN)NC(=O)[C@H](Cc3c[nH]c4ccccc34)NC(=O)[C@H](CO)NC(=O)[C@@H](CCN)NC2=O)[C@@H](C)O)CCNC(=O)[C@H]([C@@H](C)O)NC(=O)[C@H](CCN)NC(=O)[C@H](CCN)NC1=O [Ex. 300] (I: Ac-VCY[Dab]E[dDab]SW[Dab]VCS-NH2 / II: [Dab]T[Dap][Dab][Dab][dL][Abu][Dab][Dab]T; disulfide I:2-I:11; amide I:5-II:N; lactam II:4-II:C) | 1 (≈ 0.419 µM) | – | 0.125 (≈ 0.0524 µM) | 0.25 (≈ 0.105 µM) | – | 2 (≈ 0.839 µM) | – | – | <1 | 0/3 died at 2 × 40 mg/kg | 0.125 | 0.125 | 0.0625 | 0.125
4 | CC(=O)N[C@H](C(=O)N[C@H]1CSSC[C@@H](C(=O)N[C@@H](CO)C(N)=O)NC(=O)[C@H](C(C)C)NC(=O)[C@H]([C@H](C)O)NC(=O)[C@H](Cc2c[nH]c3ccccc23)NC(=O)[C@H](CO)NC(=O)[C@@H](CCN)NC(=O)[C@H](CCC(=O)N[C@@H](CCN)C(=O)N[C@H](C(=O)N[C@@H](CN)C(=O)N[C@H]2CCNC(=O)[C@H]([C@@H](C)O)NC(=O)[C@H](CCN)NC(=O)[C@H](CCN)NC(=O)[C@H](CC(C)C)NC(=O)[C@@H](CC(C)C)NC(=O)[C@H](CCN)NC2=O)[C@@H](C)O)NC(=O)[C@H](CCN)NC(=O)[C@H](Cc2ccc(O)cc2)NC1=O)C(C)C [Ex. 306] (I: Ac-VCY[Dab]E[dDab]SW[aThr]VCS-NH2 / II: [Dab]T[Dap][Dab][Dab][dL]L[Dab][Dab]T; disulfide I:2-I:11; amide I:5-II:N; lactam II:4-II:C) | 0.0625 (≈ 0.0259 µM) | – | 0.0625 (≈ 0.0259 µM) | 0.0625 (≈ 0.0259 µM) | – | 0.125 (≈ 0.0518 µM) | – | – | <1 | 0/3 died at 2 × 40 mg/kg | 0.0625 | 0.03125 | 0.0625 | 0.0625
